Laboratory results: paper PMC10353390, “Biological and Structural Analyses of New Potent Allosteric Inhibitors of HIV-1 Integrase” (Antimicrobial Agents and Chemotherapy, 2023)

How the values were obtained:
[1] = Cytotoxicity assay in MT4 cells; type: cell-based; details: human, MT4 cells (proliferating human T-cell line), CellTiter-Glo
Excerpt: Growth inhibition was monitored in a proliferating human T-cell line (MT4) with different concentrations of compounds, using the CellTiter-Glo luminescent reagent (Promega), as previously described ([12]).

[2] = system: HXB2 HIV-1 strain; assay: Multiple-round infection assay in MT4 cells, HXB2; type: cell-based; details: Human immunodeficiency virus 1, HXB2; multiple-round infection, MT4 cells; mean ± SD, n > 5; read-out: EC50 HXB2
Summary of the method: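 MT4 cells at 10^6/mL were infected with HIV-1 at MOI 0.001 for 2 h in the presence of compound dilutions. Cell viability, measured by CellTiter-Glo luminescence, served as the read-out of protection in this multiple-round infection.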

[3] = system: VSV-G-pseudotyped NL4-3Δenv-luc; assay: microbe, parasite or virus in culture; type: cell-based, HIV-1
[4] = target: HIV-1 IN-LEDGF/p75 interaction (Human immunodeficiency virus type 1 group M subtype B, UniProt P12497); assay: biochemical
Experimental: The INLAIs were tested for the ability to inhibit the HIV-1 IN-LEDGF/p75 interaction in a homogeneous time-resolved fluorescence (HTRF) assay. Our assays used either full-length IN and LEDGF/p75 proteins or their respective minimally sufficient interaction domains: the CCD of HIV-1 IN and the IBD of LEDGF/p75 (Table 1).
HTRF-based CCD-IBD interaction, IN-LEDGF/p75 interaction and IN multimerization assays were performed as described previously ([12]).

[5] = system: primary HIV-1 isolates with polymorphisms at IN positions 124 and 125; assay: Multiple-round infection of MT4 cells with primary HIV-1 isolates polymorphic at IN positions 124 and 125; type: cell-based; details: primary isolate
Summary of the method: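 Exponentially growing MT4 cells at 10^6/mL infected for 2 h at MOI 0.001 in the presence of varying compound concentrations. Cell viability quantified by CellTiter-Glo luminescence.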

For `Cc1ccc(C2CC2)c(-c2ccc3c(c2)CCCO3)c1[C@H](OC(C)(C)C)C(=O)O` [BDM-2], which CC50 [1] is on record?
Its CC50 is 69 ± 8 µM.

What about the EC50 [2] of the same molecule?
The EC50 was 4.5 ± 1.2 nM.

And the “EC50 ratio (single/multiple-round infection)” value [3]?
The value was 161.

And the EC50 ([3]; Human immunodeficiency virus 1, NL43, MT4, read-out: EC50 in single-round infection)?
Its EC50 is 1400 ± 300 nM.

And the IC50 [4]?
Its IC50 is 47 ± 14 nM.

And the “Fold change in EC50 relative to parental NL4-3, CAM2BBY (CRF02)” value ([5]; IN 124/125 AA)?
The value was 2.

And the “Fold change in EC50 relative to parental NL4-3, E0836M4 (D)” value ([5]; IN 124/125 AA)?
Its value is 1.

And the “Fold change in EC50 relative to parental NL4-3, KER2008 (A)” value ([5]; IN 124/125 AA)?
The value was 1.

What about the “Fold change in EC50 relative to parental NL4-3, NP1525 (CRF01)” value ([5]; IN 124/125 AA) of the same molecule?
Its value is 1.

What about the “Fold change in EC50 relative to parental NL4-3, NP1695 (CRF02)” value ([5]; IN 124/125 AA) of the same molecule?
The value was 2.

What about the “Fold change in EC50 relative to parental NL4-3, TZA125 (C)” value ([5]; IN 124/125 AA) of the same molecule?
Its value is 0.4.

And the “Fold change in EC50 relative to parental NL4-3, KSM4030 (A)” value ([5]; IN 124/125 GA)?
Its value is 2.

What about the “Fold change in EC50 relative to parental NL4-3, vGA (C)” value ([5]; IN 124/125 GA) of the same molecule?
The value was 4.

What about the “Fold change in EC50 relative to parental NL4-3, 99ET14 (C)” value ([5]; IN 124/125 NA) of the same molecule?
The value was 1.

And the “Fold change in EC50 relative to parental NL4-3, NP1538 (B)” value ([5]; IN 124/125 NA)?
Its value is 2.

What about the “Fold change in EC50 relative to parental NL4-3, vNA_1 (B)” value ([5]; IN 124/125 NA) of the same molecule?
The value was 2.

What about the “Fold change in EC50 relative to parental NL4-3, vNA_2 (CRF02)” value ([5]; IN 124/125 NA) of the same molecule?
The value was 3.

What about the “Fold change in EC50 relative to parental NL4-3, vNV (B)” value ([5]; IN 124/125 NV) of the same molecule?
The value was 2.

And the “Fold change in EC50 relative to parental NL4-3, vSA_1 (B)” value ([5]; IN 124/125 SA)?
The value was 3.

And the “Fold change in EC50 relative to parental NL4-3, vSA_2 (CRF02)” value ([5]; IN 124/125 SA)?
The value was 3.

And the “Fold change in EC50 relative to parental NL4-3, vTA_1 (B)” value ([5]; IN 124/125 TA)?
Its value is 2.

What about the “Fold change in EC50 relative to parental NL4-3, vTA_2 (CRF02)” value ([5]; IN 124/125 TA) of the same molecule?
Its value is 1.
